From DBAASP
Values after ≈ are worked out from the molar mass of the structure shown.

Columns and labels:
Experiment in all cases: ≥ marks a high value that may be exact or a test limit, other limits are often not marked, values filed in µg/mL are converted to µM
[1] = system: Acinetobacter baumannii ATCC 19606
[2] = system: Acinetobacter baumannii 9931
[3] = system: Klebsiella pneumoniae ATCC 700603
[4] = system: Acinetobacter baumannii 97830
[5] = system: Bacillus subtilis ATCC 23857
[6] = system: Staphylococcus epidermidis ATCC 12228
[7] = system: Pseudomonas aeruginosa 73
[8] = system: Pseudomonas aeruginosa ATCC 27853
[9] = system: Pseudomonas aeruginosa ATCC 9027
Escherichia coli 780 = system: Escherichia coli 780
[10] = system: Staphylococcus aureus 113
[11] = system: Staphylococcus aureus ATCC 29213
Staphylococcus aureus 75 = system: Staphylococcus aureus 75
Escherichia coli 804 = system: Escherichia coli 804
[12] = system: Pseudomonas aeruginosa 50
[13] = system: Zymomonas mobilis ATCC 10988
[14] = system: Escherichia coli DH5alpha
[15] = system: Salmonella enterica subsp. enterica serovar Enteritidis
Yersinia enterocolitica = system: Yersinia enterocolitica
[16] = system: Staphylococcus aureus ATCC 43300
[17] = system: Escherichia coli ATCC 25922
Salmonella sp. = system: Salmonella sp.
Escherichia coli = system: Escherichia coli
[18] = system: Escherichia coli BW25113 ΔsbmA
Escherichia coli BW25113 = system: Escherichia coli BW25113
[19] = system: Staphylococcus aureus ATCC 25923
[20] = system: Escherichia coli ATCC 25922(ImiR)
[21] = system: Klebsiella pneumoniae ATCC 700603(CipR)
[22] = system: Klebsiella pneumoniae ATCC 700603(RifR)
[23] = system: Escherichia coli ATCC 25922(CipR)
[24] = system: Pseudomonas aeruginosa ATCC 27853(GenR)
[25] = system: Escherichia coli ATCC 25922(RifR)
[26] = system: Pseudomonas aeruginosa ATCC 27853(ImiR)
[27] = system: Escherichia coli ATCC 25922(GenR)
[28] = system: Pseudomonas aeruginosa ATCC 27853(RifR)
[29] = system: Klebsiella pneumoniae ATCC 700603(GenR)
[30] = system: Klebsiella pneumoniae ATCC 700603(ImiR)
[31] = system: Pseudomonas aeruginosa ATCC 27853(CipR)
[32] = system: Acinetobacter baumannii ATCC 19606(RifR)
[33] = system: Acinetobacter baumannii ATCC 19606(ImiR)
[34] = system: Acinetobacter baumannii ATCC 19606(GenR)
[35] = system: Acinetobacter baumannii ATCC 19606(CipR)

MIC [1] [µM] | MIC [2] [µM] | MIC [3] [µM] | MIC [5] [µM] | MIC [6] [µM] | MIC [8] [µM] | MIC [9] [µM] | MIC (Escherichia coli 780) [µM] | MIC [10] [µM] | MIC [11] [µM] | MIC (Staphylococcus aureus 75) [µM] | MIC (Escherichia coli 804) [µM] | MIC [12] [µM] | MIC [17] [µM] | Structure (SMILES) | further results
128 (≈ 172 µg/mL) | ≥ 64 | > 128 | 8 (≈ 10.7 µg/mL) | 8 (≈ 10.7 µg/mL) | 128 (≈ 172 µg/mL) | 128 (≈ 172 µg/mL) | ≥ 32 | 16 (≈ 21.5 µg/mL) | 32 (≈ 43 µg/mL) | 16 (≈ 21.5 µg/mL) | ≥ 64 | ≥ 128 |  | C[C@H](N)C(=O)N[C@@H](CCCN=C(N)N)C(=O)N[C@@H](CCCN=C(N)N)C(=O)N[C@@H](Cc1c[nH]c2ccccc12)C(=O)N[C@@H](Cc1c[nH]c2ccccc12)C(=O)N[C@@H](Cc1c[nH]c2ccccc12)C(=O)N[C@@H](CCCN=C(N)N)C(=O)N[C@@H](CCCN=C(N)N)C(=O)N[C@@H](C)C(N)=O [ARRWWWRRA] | MIC [4]: ≥ 128 µM; MIC [7]: ≥ 128 µM
 |  |  |  |  |  |  |  |  |  |  |  |  |  | CC[C@H](C)[C@H](NC(=O)[C@H](CCCN=C(N)N)NC(=O)[C@H](CCC(N)=O)NC(=O)[C@@H](NC(=O)[C@@H](NC(=O)[C@H](CCCN=C(N)N)NC(=O)[C@H](CCCCN)NC(=O)[C@@H](N)CC(C)C)[C@@H](C)CC)C(C)C)C(=O)N[C@@H](CCCCN)C(=O)N[C@@H](CC(=O)O)C(=O)N[C@@H](Cc1ccccc1)C(=O)N[C@@H](CC(C)C)C(=O)N[C@@H](CCCN=C(N)N)C(N)=O [LKRIVQRIKDFLR] | MIC [13]: ≥ 119 µM; MIC [14]: ≥ 119 µM
 |  |  |  |  |  |  |  |  | > 37.7 |  |  |  | > 37.7 | CC[C@H](C)[C@H](NC(=O)[C@H](CCCCN)NC(=O)[C@@H](N)CCCN=C(N)N)C(=O)N[C@@H](CCCN=C(N)N)C(=O)N[C@@H](CCCN=C(N)N)C(=O)N[C@@H](CCCCN)C(=O)N[C@@H](Cc1c[nH]c2ccccc12)C(=O)N[C@@H](CCCCN)C(=O)N[C@@H](CCCN=C(N)N)C(N)=O [RKIRRKWKR] | MIC [15]: ≥ 37.7 µM; MIC (Yersinia enterocolitica): ≥ 37.7 µM; MIC [16]: > 37.7 µM; MIC (Salmonella sp.): ≥ 37.7 µM; MIC (Escherichia coli): > 37.7 µM
32 (≈ 67.4 µg/mL) |  | 16 (≈ 33.7 µg/mL) |  |  | > 64 |  |  |  |  |  |  |  | 1 (≈ 2.11 µg/mL) | CC[C@H](C)[C@H](NC(=O)[C@H](CCCN=C(N)N)NC(=O)[C@@H](N)Cc1c[nH]c2ccccc12)C(=O)N[C@@H](CCCN=C(N)N)C(=O)N1CCC[C@H]1C(=O)N[C@@H](CCCN=C(N)N)C(=O)N1CCC[C@H]1C(=O)N1CCC[C@H]1C(=O)N[C@@H](CCCN=C(N)N)C(=O)N[C@@H](CC(C)C)C(=O)N1CCC[C@H]1C(=O)N[C@@H](CCCN=C(N)N)C(=O)N1CCC[C@H]1C(=O)N[C@@H](CCCN=C(N)N)C(=O)N1CCC[C@H]1C(=O)N[C@@H](CCCN=C(N)N)C(=O)O [WRIRPRPPRLPRPRPR] | MIC [18]: 12 µM (≈ 25.3 µg/mL); MIC (Escherichia coli BW25113): 1 µM (≈ 2.11 µg/mL); MIC [19]: > 64 µM
8 (≈ 15.2 µg/mL) | 8 (≈ 15.2 µg/mL) | 16 (≈ 30.4 µg/mL) | 2 (≈ 3.8 µg/mL) | 4 (≈ 7.6 µg/mL) | 4 (≈ 7.6 µg/mL) | 4 (≈ 7.6 µg/mL) | 8 (≈ 15.2 µg/mL) | 2 (≈ 3.8 µg/mL) | 4 (≈ 7.6 µg/mL) | 4 (≈ 7.6 µg/mL) | 16 (≈ 30.4 µg/mL) | 4 (≈ 7.6 µg/mL) |  | NCCCC[C@H](NC(=O)[C@H](CCCN=C(N)N)NC(=O)[C@H](Cc1c[nH]c2ccccc12)NC(=O)[C@H](CCCCN)NC(=O)[C@H](CCCN=C(N)N)NC(=O)[C@H](Cc1c[nH]c2ccccc12)NC(=O)[C@H](CCCCN)NC(=O)[C@H](CCCN=C(N)N)NC(=O)[C@H](Cc1c[nH]c2ccccc12)NC(=O)[C@H](CCCCN)NC(=O)[C@H](CCCN=C(N)N)NC(=O)[C@@H](N)Cc1c[nH]c2ccccc12)C(N)=O [WRKWRKWRKWRK] | MIC [20]: 16 µM (≈ 30.4 µg/mL); MIC [21]: ≥ 32 µM; MIC [22]: 16 µM (≈ 30.4 µg/mL); MIC [23]: 8 µM (≈ 15.2 µg/mL); MIC [24]: ≥ 32 µM; MIC [25]: 16 µM (≈ 30.4 µg/mL); MIC [26]: 8 µM (≈ 15.2 µg/mL); MIC [27]: 8 µM (≈ 15.2 µg/mL); MIC [28]: 4 µM (≈ 7.6 µg/mL); MIC [29]: ≥ 32 µM; MIC [30]: 16 µM (≈ 30.4 µg/mL); MIC [31]: 4 µM (≈ 7.6 µg/mL); MIC [32]: 8 µM (≈ 15.2 µg/mL); MIC [33]: 16 µM (≈ 30.4 µg/mL); MIC [34]: 16 µM (≈ 30.4 µg/mL); MIC [35]: 16 µM (≈ 30.4 µg/mL)
